Measured values from patent publication US20250241974A1, “COMPOSITIONS AND METHODS FOR WOUND HEALING” (University of Maine System Board of Trustees, priority 2024, published 2025).

System: excision wounds
Assay: Wound healing assay with CNF hydrogel formulation (Example IV)
Type: in vivo
Conditions: citric acid as cross-linking agent

## O=C(O)CC(O)(CC(=O)O)C(=O)O [citric acid]
  effect on all parameters studied: does not have any effect
